Experimental data from ChEMBL document CHEMBL1201862, “PubChem BioAssay data set” (2004).
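Protocol summary: plate cells (96-well), add compound at 5 concentrations, incubate 48 h, interpolate endpoints linearly. GI50 marks 50% less growth.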 Activity calls are given as the source filed them. Cut-off read from the data, not from the text of the source: active = GI50 up to about 1.1 µM and inactive = higher.

What was measured:
Assay in all cases: inhibition of tumour cell growth, NCI panel, 48 h
OVCAR-4 = test system: OVCAR-4
K562 = test system: K562
786-0 = test system: 786-0
LOX IMVI = test system: LOX IMVI
T47D = test system: T47D
UACC-257 = test system: UACC-257
MCF7 = test system: MCF7
SF-268 = test system: SF-268
Hs-578T = test system: Hs-578T
MDA-MB-435 = test system: MDA-MB-435
NCI-H226 = test system: NCI-H226
TK-10 = test system: TK-10
UO-31 = test system: UO-31
EKVX = test system: EKVX
CAKI-1 = test system: CAKI-1
SNB-75 = test system: SNB-75
SN12C = test system: SN12C
OVCAR-3 = test system: OVCAR-3
HOP-92 = test system: HOP-92

Measured: GI50

N=C(N)NNC(=O)C(=O)O
inactive: OVCAR-4 > 100 µM | K562 > 100 µM | 786-0 > 100 µM | LOX IMVI > 100 µM | T47D > 100 µM | UACC-257 > 100 µM | MCF7 > 100 µM | SF-268 > 100 µM | Hs-578T > 100 µM | MDA-MB-435 > 100 µM | NCI-H226 > 100 µM | TK-10 > 100 µM | UO-31 > 100 µM | EKVX > 100 µM | CAKI-1 > 100 µM | SNB-75 > 100 µM | SN12C > 100 µM | OVCAR-3 > 100 µM

COc1ccccc1NC(=S)Nc1cc(C)ccn1
inactive: OVCAR-4 > 100 µM | K562 > 100 µM | 786-0 > 100 µM | LOX IMVI > 100 µM | T47D > 100 µM | UACC-257 > 100 µM | MCF7 > 100 µM | SF-268 91 µM | Hs-578T > 100 µM | MDA-MB-435 > 100 µM | NCI-H226 > 100 µM | TK-10 > 100 µM | UO-31 > 100 µM | EKVX > 100 µM | CAKI-1 > 100 µM | SNB-75 > 100 µM | SN12C > 100 µM | OVCAR-3 > 100 µM

CC(C(O)Cc1ccccc1)N(C)/N=N/c1ccc([N+](=O)[O-])cc1 (stereo not given)
inactive: OVCAR-4 29.9 µM | K562 27.2 µM | 786-0 18.5 µM | T47D 23.8 µM | UACC-257 21.4 µM | MCF7 24 µM | SF-268 21 µM | Hs-578T 24 µM | MDA-MB-435 18.9 µM | NCI-H226 19.5 µM | TK-10 22.5 µM | UO-31 15.2 µM | EKVX 22.9 µM | CAKI-1 21.9 µM | SNB-75 23.1 µM | SN12C 22 µM | OVCAR-3 14.8 µM

Nc1ncc2ncn(C3CCC(CO)O3)c2n1 (stereo not given)
inactive: OVCAR-4 > 100 µM | K562 > 100 µM | 786-0 > 100 µM | LOX IMVI > 100 µM | T47D > 100 µM | UACC-257 > 100 µM | MCF7 > 100 µM | SF-268 > 100 µM | Hs-578T > 100 µM | MDA-MB-435 > 100 µM | NCI-H226 > 100 µM | TK-10 > 100 µM | UO-31 > 100 µM | EKVX > 100 µM | CAKI-1 > 100 µM | SNB-75 > 100 µM | SN12C > 100 µM | OVCAR-3 > 100 µM

COC(CO[Si](C)(C)N[Si](C)(C)OCC(OC)c1ccccc1)c1ccccc1 (stereo not given)
inactive: OVCAR-4 > 100 µM | K562 > 100 µM | 786-0 > 100 µM | LOX IMVI > 100 µM | T47D > 100 µM | UACC-257 > 100 µM | MCF7 > 100 µM | HOP-92 > 100 µM | MDA-MB-435 > 100 µM | NCI-H226 > 100 µM | TK-10 > 100 µM | UO-31 > 100 µM | EKVX > 100 µM | CAKI-1 > 100 µM | SNB-75 > 100 µM | SN12C > 100 µM | OVCAR-3 > 100 µM

CCOP(=O)(OCC)/C(=C\n1c(=S)[nH]c2cc(C)ccc21)C(=O)OC
inactive: OVCAR-4 > 100 µM | 786-0 > 100 µM | LOX IMVI > 100 µM | T47D > 100 µM | UACC-257 > 100 µM | MCF7 > 100 µM | SF-268 > 100 µM | HOP-92 > 100 µM | MDA-MB-435 > 100 µM | NCI-H226 > 100 µM | TK-10 > 100 µM | UO-31 > 100 µM | EKVX 45.8 µM | CAKI-1 > 100 µM | SNB-75 > 100 µM | SN12C > 100 µM | OVCAR-3 > 100 µM

O=C1CC[C@@H](S(=O)(=O)c2ccccc2)[C@@H](/C=C/c2ccccc2)O1
inactive: OVCAR-4 > 100 µM | K562 > 100 µM | 786-0 > 100 µM | LOX IMVI > 100 µM | UACC-257 > 100 µM | NCI-H226 > 100 µM | TK-10 > 100 µM | UO-31 > 100 µM | EKVX > 100 µM | SNB-75 > 100 µM | SN12C > 100 µM | OVCAR-3 > 100 µM

CC(=O)c1c2c(cc3c1CCC3)CCC2
inactive: OVCAR-4 69.7 µM | K562 20.7 µM | 786-0 > 100 µM | LOX IMVI > 100 µM | T47D 15.4 µM | UACC-257 > 100 µM | MCF7 > 100 µM | SF-268 > 100 µM | Hs-578T 76.6 µM | MDA-MB-435 > 100 µM | NCI-H226 82 µM | TK-10 49 µM | UO-31 54.5 µM | EKVX 63.5 µM | CAKI-1 > 100 µM | SNB-75 > 100 µM | SN12C > 100 µM | OVCAR-3 > 100 µM
